In patent US10329309B2, “3-(3H-imidazo[4,5-B]pyridin-2-yl)-1H-pyrazolo[4,3-B]pyridines and therapeutic uses thereof” (Samumed, LLC, priority 2015, dated 2019):

Tests used:
Assay type in all cases: cell-based
[1] = test system: Wnt activity (Sp5-Luc reporter, SW480 colon carcinoma cells); experiment: Screening assay for Wnt activity: Sp5-Luc reporter gene assay in SW480 cells; conditions: Homo sapiens; for inhibition at 10 µM: 10 μM compound, read-out: percent inhibition at 10 μM (given for EC50 of >10 μM); for EC50: overnight incubation, 10-point dose-response from 10 μM
How it was run: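 Luminescence (BrightGlo) read after overnight 37 °C exposure of Sp5-Luc SW480 reporter cells, 4,000/well in 1% FBS, to compound dosed 1:3 over 10 points from 10 μM with 0.1% DMSO. Values normalized to DMSO-only cells, fitted with variable-slope four-parameter model; where EC50 exceeds 10 μM, % inhibition at 10 μM reported.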

SW480 colon cancer cells = experiment: Cell viability assay (CellTiter-Blue), four days; conditions: Homo sapiens, 96 h; for EC50: CellTiter-Blue cell viability; for inhibition at 10 µM: read-out: percent inhibition at 10 μM (given for EC50 of >10 μM)
How it was run: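 Four-day viability readout in SW480 cells: compound at 0.0045–10 μM (1:3 series), DMSO controls in eight replicates, CellTiter-Blue fluorescence after ~3 h. Values are regression-derived EC50s, or percent inhibition at 10 μM when EC50 exceeds 10 μM.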

IL-6 (THP-1 cells) = experiment: Inhibition of IL-6 in LPS-stimulated THP-1 monocytes (HTRF); conditions: Homo sapiens; for EC50: LPS 500 ng/mL, IL-6 by HTRF; for inhibition at 10 µM: LPS stimulated, IL-6, at 10 μM, read-out: percent inhibition at 10 μM (given for EC50 of >10 μM)
How it was run: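 IL-6 release was read as the HTRF 665/620 nm ratio after 22 h of 500 ng/mL LPS at 37 °C. Before stimulation, THP-1 cells kept 24 h in 1% FBS were exposed 2 h to a 10-point 1:3 compound series starting at 10 μM, in 0.1% DMSO. Four-parameter EC50s came from DMSO-normalized duplicates, with % inhibition at 10 μM reported beyond 10 μM.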

| EC50 [1] | EC50 (SW480 colon cancer cells) | EC50 (IL-6 (THP-1 cells)) | SMILES | inhibition at 10 µM [1] | inhibition at 10 µM (SW480 colon cancer cells) | inhibition at 10 µM (IL-6 (THP-1 cells)) |
| --- | --- | --- | --- | --- | --- | --- |
| > 10 µM | > 10 µM | > 10 µM | COc1cncc(-c2ccc3[nH]nc(-c4nc5c(-c6ccoc6)ccnc5[nH]4)c3n2)c1 [Compound 692, 3-(7-(Furan-3-yl)-3H-imidazo[4,5-b]pyridin-2-yl)-5-(5-methoxypyridin-3-yl)-1H-pyrazolo[4,3-b]pyridine] | 15.3% | 17.6% | 39% |
| > 10 µM | 9.02 µM | > 10 µM | CN(C)CCNc1cc(F)cc(-c2ccnc3[nH]c(-c4n[nH]c5ccc(-c6ccccn6)nc45)nc23)c1 [Compound 476, N^1-(3-Fluoro-5-(2-(5-(pyridin-2-yl)-1H-pyrazolo[4,3-b]pyridin-3-yl)-3H-imidazo[4,5-b]pyridin-7-yl)phenyl)-N^2,N^2-dimethylethane-1,2-diamine] | 15.5% |  | 33% |
| > 10 µM | > 10 µM | > 10 µM | CCCC(=O)Nc1cncc(-c2ccc3[nH]nc(-c4nc5c(-c6ccncc6)ccnc5[nH]4)c3n2)c1 [Compound 129, N-(5-(3-(7-(pyridin-4-yl)-3H-imidazo[4,5-b]pyridin-2-yl)-1H-pyrazolo[4,3-b]pyridin-5-yl)pyridin-3-yl)butyramide] | 4.3% | 5.7% | 14.9% |
| > 10 µM | > 10 µM | > 10 µM | O=C(Nc1cncc(-c2ccc3[nH]nc(-c4nc5c(-c6cccc(F)c6)ccnc5[nH]4)c3n2)c1)C1CC1 [Compound 20, N-(5-(3-(7-(3-Fluorophenyl)-3H-imidazo[4,5-b]pyridin-2-yl)-1H-pyrazolo [4,3-b]pyridin-5-yl)pyridin-3-yl)cyclopropanecarboxamide] | 51.2% | 2.8% | 16% |
| > 10 µM | > 10 µM | > 10 µM | c1cncc(-c2ccnc3[nH]c(-c4n[nH]c5ccc(-c6cncc(OC7CCCCC7)c6)nc45)nc23)c1 [Compound 559, 5-(5-(Cyclohexyloxy)pyridin-3-yl)-3-(7-(pyridin-3-yl)-3H-imidazo[4,5-b]pyridin-2-yl)-1H-pyrazolo[4,3-b]pyridine] | 12.4% | 4% | 31.6% |
| > 10 µM | > 10 µM | > 10 µM | O=C(Cc1ccccc1)Nc1cncc(-c2ccc3[nH]nc(-c4nc5cccnc5[nH]4)c3n2)c1 [Compound 262, N-(5-(3-(3H-imidazo[4,5-b]pyridin-2-yl)-1H-pyrazolo[4,3-b]pyridin-5-yl)pyridin-3-yl)-2-phenylacetamide] | 7.6% | 5.5% | 17.3% |
| > 10 µM | > 10 µM | > 10 µM | CCNCc1cncc(-c2ccc3[nH]nc(-c4nc5c(-c6ccccn6)ccnc5[nH]4)c3n2)c1 [Compound 146, N-((5-(3-(7-(pyridin-2-yl)-3H-imidazo[4,5-b]pyridin-2-yl)-1H-pyrazolo[4,3-b]pyridin-5-yl)pyridin-3-yl)methyl)ethanamine] | 10.6% | 23.3% | 4.5% |
| > 10 µM | > 10 µM | > 10 µM | CCC(=O)Nc1cncc(-c2ccc3[nH]nc(-c4nc5c(-c6ccsc6)ccnc5[nH]4)c3n2)c1 [Compound 281, N-(5-(3-(7-(thiophen-3-yl)-3H-imidazo[4,5-b]pyridin-2-yl)-1H-pyrazolo[4,3-b]pyridin-5-yl)pyridin-3-yl)propionamide] | 28.3% | 24.2% | 25% |
